Test system: hGrx1-roGFP2 in P. falciparum 3D7
Assay: cytosolic glutathione redox sensor in parasites
Format: cell-based, Plasmodium falciparum
Settings: for oxidizing effect, change of 405/488 nm fluorescence ratio: 4 h
Protocol: To further study the mechanism of action of the steroid compounds and evaluate the potential involvement of redox stress, compound 1o was tested in cell culture on the chloroquine-sensitive P. falciparum 3D7 strain expressing the cytosolic glutathione redox sensor hGrx1-roGFP2 (Supplementary Note 2). […]
signals at 405/475 nm were calculated and plotted against time and/or concentration of compound 1o or redox active compounds. Data from three independent experiments were […]
100 µM for 4 h and 24 h incubations. Transfection of the Pf3D7 strain with the redox sensor was carried out, and the parasites were cultured as described under constant drug pressure with 5 nM WR99210 (Jacobus Pharmaceuticals, New Jersey, USA).45,46 P. falciparum trophozoites were enriched via magnet separation.47 Parasitemia was counted by using Giemsa-stained blood smears. The IC50 of compound 1o on P. falciparum 3D7 asexual blood stages was verified to be about 5 nM in an additional 72 h [3H] incorporation assay45 directly before the experiment. The effect of compound 1o on P. falciparum was investigated in 4 h and 24 h incubations. For 4 h experiments, trophozoite stage parasites (26-30 h post invasion) of 3D7[hGrx1-roGFP2] (6-8% parasitemia) were magnetically enriched (Miltenyi Biotec, Germany), counted by using the improved Neubauer hemocytometer (Brand GmbH, Germany), and returned to cell culture (at 0.5 x 10^6 trophozoites/µl) for at least 1 h to recover.
1.0 x 10^6 cells in 100 µl cell culture medium were placed into LoBind tubes (Eppendorf) for 4 h incubation experiments. The parasites were treated with compound 1o at 50 x, and 100 x IC and with mefloquine (MQ) as a standard antimalarial drug at 1 µM (IC = 8 nM)45 for 4 h […]
for 15 min at 37 °C. For 24 h experiments, a 5 ml culture (6-8% parasitemia) of ring stage parasites (6-10 h post invasion) was treated with compound 1o at 4 x, 10 x, 20 x IC50 and with 100 nM MQ. Prior to enrichment, cysteines were blocked with 2 mM NEM. For 4 h and 24 h experiments, cells were washed after incubation with pre-warmed Ringer’s solution […]
Hepes, 1 mM NaH2PO4, pH 7.4) and were seeded onto poly-L-lysine-coated µ-slides VI (Ibidi, Martinsried, Germany). A Leica confocal system TCS SP5 inverted microscope equipped with the objective HCX PL APO 63.0x1.30 GLYC 37 °C UV connected to a 37 °C temperature chamber was used. The argon laser power was set to 20%; scanning was performed at 400 Hz frequency and at a 512 × 512 pixel resolution. The smart gain and […]
smart offset were 950 V and -0.9%, respectively. With a sequential scan, we excited the sensor at 405 nm and at 488 nm and detected emissions at 500-550 nm. Laser intensity for both lines was adjusted to match the full dynamic range of the probe to the dynamic range of the detector (405 nm: 12%, 488 nm: 4%). Autofluorescence images were simultaneously taken at ex 405 nm / em 430-450 nm and individually defined together with the background for every image, but no fluorescence signal could be detected. All experiments included non- […]
and 10 mM DTT (2 min incubation), respectively, prior to blocking with NEM. Only parasites showing fluorescent signals at both 405 and 488 nm excitation and an intact host cell were chosen for analysis. Each experiment was carried out three times. At least 10 parasites were analyzed, resulting in at least 30 experimental values per incubation. The Leica LAS AF Lite software for fluorescence analysis was used. The 405/488 nm ratio was calculated. The obtained ratio values were normalized to the control ratio value, which was set to 100. The graphs were plotted using the GraphPad Prism 5 software (San Diego, CA, USA). One way-ANOVA test with 95% confidence intervals with the Dunnett’s Multiple Comparison Test was applied for statistical analysis of significance (*, p < 0.05; **, p < 0.01; ***, p < 0.001). […]
with 1 µM MQ. 24 h incubation (Supplementary Figure 8 panel B) with compound 1o resulted in a higher increase of the fluorescence ratio in a concentration-dependent manner. […]

COc1ccc2c(c1)CCC1C2CC[C@@]2(C)C1CC[C@H]2NCc1cc2ccccc2cc1O (some centres unmarked) [1o]
change of 405/488 nm fluorescence ratio (20 nM (4 x IC50), 24 h): 1.8 fold
change of 405/488 nm fluorescence ratio (100 nM, 24 h): 2.4 fold
oxidizing effect, change of 405/488 nm fluorescence ratio (250 nM (50 x IC50)): approximately 1.5 fold
oxidizing effect, change of 405/488 nm fluorescence ratio (500 nM (100 x IC50)): approximately 1.5 fold
redox ratio of the probe (20, 50 and 100 nM, 24 h, not significant): dose-dependent increase of the redox ratio of the probe
